In patent publication US20180153995A1, “USE OF ANTIMICROBIAL POLYMERS FOR RE-SENSITIZATION OF MICROORGANISMS UPON EMERGENCE OF RESISTANCE TO ANTI-MICROBIAL AGENTS” (Technion Research & Development Foundation Limited, priority 2008, published 2018):
Like-named read-outs stand apart in the source and are kept apart here.

Legend:
S. aureus 17314 = assay: Antibiotic MIC by microdilution with or without sub-MIC polymer; assay type: cell-based, Staphylococcus aureus; conditions: S. aureus 17314, no polymer (None)
S. aureus 43300 = assay: as above; assay type: cell-based, Staphylococcus aureus
E. coli 16329 = assay type: cell-based, Escherichia coli
How it was run: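 Bacterial suspensions (100 μl) were added to 100 μl of culture medium carrying 2-fold serially diluted antibiotic together with a fraction of the polymer's MIC, or to plain medium as control. Plates were incubated 24 hours at 37° C, and proliferation was read at 620 nm against calibration standards. Starting inoculum was 10^5 bacteria per ml.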

MRSA 15903 = assay: microbe, parasite or virus in culture; assay type: cell-based, Staphylococcus aureus
How it was run: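 Two-agent combinations tested against MRSA 15903; FIC index = A/MICA + B/MICB, using MICs in combination versus alone. Below 0.5 read as clear re-sensitizing, 0.5–4 marginal or null, above 4 antagonism.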

E. coli 14182 = assay: Antibiotic MIC by microdilution with or without sub-MIC polymer; assay type: cell-based, Escherichia coli
[1] = test system: E. coli K-12 efflux knockout mutant; assay type: cell-based, Escherichia coli; conditions: E. coli AG100A (efflux−)
How it was run: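 Broth microdilution, inocula 10^5 bacteria/ml, 24 h at 37 °C. Growth read as OD620 against calibration standards.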

CCN1CCN(C(=O)N[C@@H](C(=O)N[C@@H]2C(=O)N3[C@@H]2SC(C)(C)[C@@H]3C(=O)O)c2ccccc2)C(=O)C1=O [Piperacillin, piperacillin]
Antibiotic MIC (S. aureus 17314; Table 10): 8 µg/mL
Antibiotic MIC (S. aureus 17314; Table 11): 128 µg/mL
Antibiotic MIC (S. aureus 17314; Table 12): 128 µg/mL
Antibiotic MIC (S. aureus 43300; +¼ MIC (1.6 μM) C14(9-ene)KKNC12KNH2): 16 µg/mL
Antibiotic MIC (S. aureus 43300; +½ MIC (3.12 μM) C12(5-ene)KKNC12KNH2): 1 µg/mL
Antibiotic MIC (S. aureus 43300; +½ MIC (3.12 μM) C14(9-ene)KKNC12KNH2): 16 µg/mL
Antibiotic MIC (S. aureus 43300; +⅓ MIC (2.1 μM) C14(9-ene)KKNC12KNH2): 16 µg/mL
Antibiotic MIC (S. aureus 43300; no polymer (None), Table 8): 16 µg/mL
Antibiotic MIC (S. aureus 43300; no polymer (None), Table 9): 16 µg/mL
Antibiotic MIC (S. aureus 43300; no polymer (None), Table 10): 16 µg/mL
Antibiotic MIC (S. aureus 43300; no polymer (None), Table 11): 32 µg/mL
Antibiotic MIC (S. aureus 43300; no polymer (None), Table 12): 32 µg/mL
Antibiotic MIC (E. coli 16329): 128 to 256 µg/mL
Antibiotic MIC (E. coli 16329; E. coli 16329, no polymer (None), Table 10): 256 µg/mL
Antibiotic MIC (E. coli 16329; E. coli U-16329, +¼ MIC C12K(NC8K)5NH2): 256 µg/mL
Antibiotic MIC (E. coli 16329; E. coli U-16329, +½ MIC C12K(NC8K)5NH2): 128 µg/mL
Antibiotic MIC (E. coli 16329; E. coli U-16329, +⅓ MIC C12K(NC8K)5NH2): 128 to 256 µg/mL
Antibiotic MIC, None (E. coli 16329; E. coli U-16329, antibiotic alone (Table 15)): 256 µg/mL
Antibiotic MIC (E. coli 16329; E. coli U-16329, no polymer (None), Table 14): 256 µg/mL
Antibiotic MIC in presence of C12K(NC8K)7NH2 (SEQ ID NO: 4), +¼ MIC (E. coli 16329; E. coli U-16329, polymer at ¼ of its MIC): 128 to 256 µg/mL
Antibiotic MIC in presence of C12K(NC8K)7NH2 (SEQ ID NO: 4), +½ MIC (E. coli 16329; E. coli U-16329, polymer at ½ of its MIC): 64 to 128 µg/mL
Antibiotic MIC in presence of C12K(NC8K)7NH2 (SEQ ID NO: 4), +⅓ MIC (E. coli 16329; E. coli U-16329, polymer at ⅓ of its MIC): 128 to 256 µg/mL
MIC (MRSA 15903; MRSA 15903, +¼ polymer MIC (1.6 μM) NC12(KNC12K)2NH2): 64 µg/mL
MIC (MRSA 15903; MRSA 15903, +½ polymer MIC (3.1 μM) NC12(KNC12K)2NH2): 1 µg/mL
MIC (MRSA 15903; MRSA 15903, +⅓ polymer MIC (2.1 μM) NC12(KNC12K)2NH2): 4 µg/mL
MIC (MRSA 15903; S. aureus CI-15903, +polymer (¼ MIC) C12(5-ene)KKNC12KNH2): 32 µg/mL
MIC (MRSA 15903; S. aureus CI-15903, +polymer (½ MIC) C12(5-ene)KKNC12KNH2): 0.25 µg/mL
MIC (MRSA 15903; S. aureus CI-15903, +polymer (⅓ MIC) C12(5-ene)KKNC12KNH2): 4 µg/mL
MIC (MRSA 15903; S. aureus CI-15903, alone): 256 µg/mL
MIC (MRSA 15903; Staphylococcus aureus, MRSA, 24 h): 256 µg/mL
Antibiotic MIC (E. coli 14182; +¼ MIC C12K(NC8K)5NH2): >512 µg/mL
Antibiotic MIC (E. coli 14182; +½ MIC C12K(NC8K)5NH2): 512 µg/mL
Antibiotic MIC (E. coli 14182; +⅓ MIC C12K(NC8K)5NH2): >512 µg/mL
Antibiotic MIC, None (E. coli 14182; antibiotic alone (Table 15)): >512 µg/mL
Antibiotic MIC (E. coli 14182; no polymer (None), Table 14): >512 µg/mL
Antibiotic MIC in presence of C12K(NC8K)7NH2 (SEQ ID NO: 4), +¼ MIC (E. coli 14182; polymer at ¼ of its MIC): >512 µg/mL
Antibiotic MIC in presence of C12K(NC8K)7NH2 (SEQ ID NO: 4), +½ MIC (E. coli 14182; polymer at ½ of its MIC): 64 µg/mL
Antibiotic MIC in presence of C12K(NC8K)7NH2 (SEQ ID NO: 4), +⅓ MIC (E. coli 14182; polymer at ⅓ of its MIC): >512 µg/mL
Antibiotic MIC, None ([1]; antibiotic alone (Table 16)): <0.13 µg/mL
Antibiotic MIC, None ([1]; antibiotic alone (Table 17)): <0.13 µg/mL
Antibiotic MIC in presence of C12K(NC8K)7NH2 (SEQ ID NO: 4), +¼ MIC ([1]; polymer at ¼ of its MIC (Table 16)): <0.13 µg/mL
Antibiotic MIC in presence of C12K(NC8K)7NH2 (SEQ ID NO: 4), +½ MIC ([1]; polymer at ½ of its MIC (Table 16)): <0.13 µg/mL
Antibiotic MIC in presence of C12K(NC8K)7NH2 (SEQ ID NO: 4), +⅓ MIC ([1]; polymer at ⅓ of its MIC (Table 16)): <0.13 µg/mL
Antibiotic MIC in presence of the OAK, +¼ MIC ([1]; the OAK at ¼ of its MIC (Table 17)): <0.13 µg/mL
Antibiotic MIC in presence of the OAK, +½ MIC ([1]; the OAK at ½ of its MIC (Table 17)): <0.13 µg/mL
Antibiotic MIC in presence of the OAK, +⅓ MIC ([1]; the OAK at ⅓ of its MIC (Table 17)): <0.13 µg/mL
